In data set [1] the target is T1, DPP-IV activity in rat plasma (Rattus norvegicus, UniProt P14740).
T1 construct: from tissue; host or cells: rat plasma
Put plainly: rat plasma DPP-IV assay. In kind it is biochemical. Conditions: substrate H-Glycine-Proline-AMC. The method, then:
(§1) Briefly, five μl of plasma are added to 96-well flat-bottom mictotiter plates (Falcon), followed by the addition of 5 μl of 80 mM MgCl2 in incubation buffer (25 mM HEPES, 140 mM NaCl, 1% RIA-grade BSA, pH 7.8). After a 5 min. incubation at room temperature, the reaction is initiated by the addition of 10 μl of incubation buffer containing 0.1 mM substrate (H-Glycine-Proline-AMC; AMC is 7-amino-4-methylcoumarin). The plates are covered with aluminum foil (or kept in the dark) and incubated at room temperature for 20 min. […] A fluorescence-concentration curve of free AMC is generated using 0-50 μM solutions of AMC in assay buffer. The curve generated is linear and is used for interpolation of substrate consumption (catalytic activity in nmoles substrate cleaved/min). As with the previous assay, the potency of the test compounds as DPP-IV inhibitors, expressed as IC50, is calculated from 8-point, dose-response curves using a 4 parameter logistic function.

Data set [2] has as its target T2, DPP-IV activity from human colonic carcinoma cell extracts (Caco-2) (Homo sapiens, UniProt P27487).
T2 construct: Cell extract is prepared from cells solubilized in 10 mM Tris-HCl, 0.15 M NaCl, 0.04 t.i.u. aprotinin, 0.5% nonidet-P40; host or cells: Caco-2 (differentiated), NP-40 solubilized extract
Put plainly: Caco-2 DPP-IV Assay. In kind it is biochemical. The conditions noted are these: Caco-2 cell extract, substrate H-Alanine-Proline-pNA. The method, then:
The human colonic carcinoma cell line Caco-2 was obtained from the American Type Culture Collection (ATCC HTB 37). Differentiation of the cells to induce DPP-IV expression was accomplished as described by Reisher, et al. in an article entitled “Increased expression of . . . intestinal cell line Caco-2” in Proc. Natl. Acad. Sci., Vol. 90, pgs. […] Cell extract is prepared from cells solubilized in 10 mM Tris-HCl, 0.15 M NaCl, 0.04 t.i.u. aprotinin, 0.5% nonidet-P40, pH 8.0, which is centrifuged at 35,000 g for 30 min. at 4° C. to remove cell debris. The assay is conducted by adding 20 μg solubilized Caco-2 protein, diluted to a final volume of 125 μl in assay buffer (25 mM Tris-HCl pH 7.4, 140 mM NaCl, 10 mM KCl, 1% bovine serum albumin) to microtiter plate wells. The reaction is initiated by adding 25 μl of 1 mM substrate (H-Alanine-Proline-pNA; pNA is p-nitroaniline). The reaction is run at room temperature for 10 minutes after which time a 19 μl volume of 25% glacial acetic acid is added to stop the reaction. […] A standard curve of free p-nitroaniline is generated using 0-500 μM solutions of free pNA in assay buffer. The curve generated is linear and is used for interpolation of substrate consumption (catalytic activity in nmoles substrate cleaved/min). […] The potency of the test compounds as DPP-IV inhibitors, expressed as IC50, is calculated from 8-point, dose-response curves using a 4-parameter logistic function.

Data set [3] concerns the target T3, DPP-IV activity in human plasma (Homo sapiens, UniProt P27487).
T3 construct: from tissue; host or cells: human plasma
Put plainly: human plasma DPP-IV assay. Conditions: substrate H-Glycine-Proline-AMC. In kind it is biochemical. The method, then:
as §1

T2 sequence (P27487 whole entry): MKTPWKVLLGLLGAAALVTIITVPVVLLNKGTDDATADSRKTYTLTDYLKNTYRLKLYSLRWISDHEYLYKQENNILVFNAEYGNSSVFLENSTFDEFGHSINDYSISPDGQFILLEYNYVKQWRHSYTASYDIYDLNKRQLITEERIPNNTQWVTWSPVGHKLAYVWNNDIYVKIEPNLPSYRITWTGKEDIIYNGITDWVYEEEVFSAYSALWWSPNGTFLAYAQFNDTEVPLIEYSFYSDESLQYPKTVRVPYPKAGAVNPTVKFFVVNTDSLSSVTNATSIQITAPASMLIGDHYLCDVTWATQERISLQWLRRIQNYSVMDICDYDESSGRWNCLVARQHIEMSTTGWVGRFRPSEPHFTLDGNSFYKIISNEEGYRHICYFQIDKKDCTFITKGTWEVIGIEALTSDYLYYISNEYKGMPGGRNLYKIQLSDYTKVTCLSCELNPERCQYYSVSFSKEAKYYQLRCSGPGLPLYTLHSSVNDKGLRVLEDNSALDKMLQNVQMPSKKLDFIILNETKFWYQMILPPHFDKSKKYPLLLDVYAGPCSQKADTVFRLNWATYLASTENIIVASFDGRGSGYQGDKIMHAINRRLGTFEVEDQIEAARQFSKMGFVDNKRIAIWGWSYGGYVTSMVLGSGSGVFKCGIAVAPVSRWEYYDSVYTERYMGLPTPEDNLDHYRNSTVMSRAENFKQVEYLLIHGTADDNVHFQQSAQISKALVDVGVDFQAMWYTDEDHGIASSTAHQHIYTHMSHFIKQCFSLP
T3 sequence (P27487 39-766 limits assumed): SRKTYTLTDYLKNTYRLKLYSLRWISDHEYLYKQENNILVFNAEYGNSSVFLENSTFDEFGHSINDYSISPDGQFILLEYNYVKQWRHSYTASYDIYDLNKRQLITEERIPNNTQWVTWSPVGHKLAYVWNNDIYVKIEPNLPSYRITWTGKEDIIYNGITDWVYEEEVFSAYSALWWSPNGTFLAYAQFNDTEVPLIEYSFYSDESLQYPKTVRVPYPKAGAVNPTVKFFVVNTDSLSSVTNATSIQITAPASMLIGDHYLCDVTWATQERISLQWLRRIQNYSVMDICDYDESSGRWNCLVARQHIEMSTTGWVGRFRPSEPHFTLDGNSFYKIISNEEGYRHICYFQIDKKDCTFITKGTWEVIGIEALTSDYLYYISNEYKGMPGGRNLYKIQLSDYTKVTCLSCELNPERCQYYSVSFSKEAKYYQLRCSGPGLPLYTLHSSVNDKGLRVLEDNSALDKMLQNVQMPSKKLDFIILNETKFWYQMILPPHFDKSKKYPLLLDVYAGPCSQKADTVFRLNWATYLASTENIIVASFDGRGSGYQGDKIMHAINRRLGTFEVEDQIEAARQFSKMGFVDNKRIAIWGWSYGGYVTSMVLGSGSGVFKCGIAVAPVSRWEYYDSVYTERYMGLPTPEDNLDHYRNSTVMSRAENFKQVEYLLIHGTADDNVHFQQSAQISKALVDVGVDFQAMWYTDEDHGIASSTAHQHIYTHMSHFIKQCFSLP
T1 sequence (P14740 37-767 limits assumed): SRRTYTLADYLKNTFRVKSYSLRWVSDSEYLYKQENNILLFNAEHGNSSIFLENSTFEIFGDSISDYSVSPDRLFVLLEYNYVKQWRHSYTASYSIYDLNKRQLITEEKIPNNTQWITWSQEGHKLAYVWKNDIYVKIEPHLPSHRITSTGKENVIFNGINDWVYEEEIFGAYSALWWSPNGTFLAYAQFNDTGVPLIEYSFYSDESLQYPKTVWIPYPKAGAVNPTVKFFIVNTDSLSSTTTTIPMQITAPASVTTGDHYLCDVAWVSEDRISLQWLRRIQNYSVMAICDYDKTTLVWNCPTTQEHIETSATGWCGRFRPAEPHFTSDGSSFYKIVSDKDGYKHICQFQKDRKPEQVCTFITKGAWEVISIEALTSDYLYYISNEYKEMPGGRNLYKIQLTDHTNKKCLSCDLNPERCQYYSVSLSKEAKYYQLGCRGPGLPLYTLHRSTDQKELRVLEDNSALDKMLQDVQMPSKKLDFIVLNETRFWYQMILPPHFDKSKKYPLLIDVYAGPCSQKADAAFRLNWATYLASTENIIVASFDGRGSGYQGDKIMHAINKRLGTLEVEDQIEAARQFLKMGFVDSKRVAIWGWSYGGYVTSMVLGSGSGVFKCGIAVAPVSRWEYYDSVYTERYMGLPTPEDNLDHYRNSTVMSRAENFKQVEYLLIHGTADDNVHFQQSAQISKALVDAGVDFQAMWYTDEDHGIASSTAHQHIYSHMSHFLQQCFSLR

Regarding `O=C(CNCCNc1ccc(Cl)cn1)N1CCCC1` [Ex. 1, 1-[2-[(5-chloropyridin-2-yl)amino]ethylamino]acetylpyrrolidine], the values for the IC50 in data set [1], in data set [2] and in data set [3] were 9.3 µM, 5.5 µM and 15.9 µM, respectively.

Turning to `N#Cc1ccc(NCCNCC(=O)N2CCCC2)nc1` [Ex. 2A, 1-[2-[(5-cyanopyridin-2-yl)amino]ethylamino]acetylpyrrolidine], the melting point (in general, the temperature, or range, at which the solid turns liquid) fell in the range of 122 to 123 °C. Further, the half-inhibitory concentration (IC50) (as a rule, the concentration at which inhibition is half-maximal) in data set [1] was determined as 4.4 µM. Moreover, the midpoint of inhibition in data set [2], the IC50, lay at 2.6 µM. Further, the IC50 in data set [3] turned out to be 9.2 µM.

`O=C(CNCCNc1ncccn1)N1CCCC1` [Ex. 2B]: the IC50 in data set [1] worked out at 28.4 µM; in data set [2], 27.5 µM; in data set [3] it was 45.8 µM.

`O=C(CNC1(CO)CCCC1)N1CCCC1` [Ex. 2C, 1-[(1-hydroxymethylcyclopent-1-yl)amino]acetylpyrrolidine] displayed a melting point of 72 to 74 °C. The compound further gave an IC50 in data set [1] of 7.8 µM. In data set [2], half-maximal inhibition (IC50) required 9.7 µM. In data set [3], the half-inhibitory concentration (IC50) was determined as 15.2 µM.

Compound `O=C(CNCCNc1ccccn1)N1CCCC1` [Ex. 2D, 1-[2-[(pyridin-2-yl)amino]ethylamino]acetylpyrrolidine] showed a melting point of 98 to 100 °C. Moreover, half-maximal inhibition in data set [1] (IC50) required 22.9 µM. Besides, the IC50 in data set [2] was 6.4 µM. Moreover, the midpoint of inhibition in data set [3], the IC50, lay at 9.4 µM.

The values above are taken from US6617340B1, “N-(substituted glycyl)-pyrrolidines, pharmaceutical compositions containing them and their use in inhibiting dipeptidyl peptidase-IV” (Novartis AG, priority 1999, dated 2003).
